Consider 1 molecule from patent US20210177814A1, “USE OF GUANABENZ OR DERIVATES THEREOF FOR THE TREATMENT OF TYPE I IFN-DEPENDENT PATHOLOGIES” (INSERM (Institut National de la Santé et de la Recherche …, priority 2018, published 2021).

The assay concerns the target T1, TLR9 (Mus musculus, UniProt Q9EQU3).
T1 construct: from tissue; host or cells: whole animal: C57BL/6, FVB and FVB GADD34ΔC/ΔC mice
T1 sequence (Q9EQU3 26-1032): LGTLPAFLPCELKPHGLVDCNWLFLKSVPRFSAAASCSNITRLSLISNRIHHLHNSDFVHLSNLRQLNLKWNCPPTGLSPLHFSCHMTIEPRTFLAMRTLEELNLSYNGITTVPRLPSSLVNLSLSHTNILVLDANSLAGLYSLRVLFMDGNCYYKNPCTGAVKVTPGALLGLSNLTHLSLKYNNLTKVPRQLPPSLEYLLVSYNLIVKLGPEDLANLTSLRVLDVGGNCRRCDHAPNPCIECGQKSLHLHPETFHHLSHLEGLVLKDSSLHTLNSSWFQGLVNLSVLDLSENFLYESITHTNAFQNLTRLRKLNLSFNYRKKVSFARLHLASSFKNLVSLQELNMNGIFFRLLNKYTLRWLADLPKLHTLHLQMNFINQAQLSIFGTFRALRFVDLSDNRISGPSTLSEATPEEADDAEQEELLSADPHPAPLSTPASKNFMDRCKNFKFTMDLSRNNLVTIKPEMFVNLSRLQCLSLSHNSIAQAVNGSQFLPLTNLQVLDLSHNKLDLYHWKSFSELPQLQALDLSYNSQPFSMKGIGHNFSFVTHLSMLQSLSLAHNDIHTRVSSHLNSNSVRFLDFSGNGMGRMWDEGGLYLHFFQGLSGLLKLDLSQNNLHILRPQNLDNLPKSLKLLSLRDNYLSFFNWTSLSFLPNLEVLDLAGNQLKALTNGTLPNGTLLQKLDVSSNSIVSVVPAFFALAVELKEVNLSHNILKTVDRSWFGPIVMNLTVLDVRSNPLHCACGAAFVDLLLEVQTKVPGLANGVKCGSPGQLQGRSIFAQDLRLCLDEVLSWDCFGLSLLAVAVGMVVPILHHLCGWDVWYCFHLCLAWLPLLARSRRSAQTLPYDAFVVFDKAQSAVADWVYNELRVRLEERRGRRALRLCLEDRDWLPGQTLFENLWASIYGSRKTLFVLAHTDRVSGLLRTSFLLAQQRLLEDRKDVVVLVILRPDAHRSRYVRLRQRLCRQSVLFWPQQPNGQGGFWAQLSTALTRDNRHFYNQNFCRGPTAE
The assay can be described thus: D-galN/CpG ODN 1826 cytokine shock model. Type of assay: in vivo. The method, then:
WT and GADD34^ΔC/ΔC mice were injected with D-galN (20 mg/mouse), CpG ODN 1826 or PBS for control mice (50 μg/20 g), GBZ or clonidine (2 mg/kg). (A) Survival of C57/BL6 mice is represented as total percentage of survival after 48 h or in a Kaplan-Meier plot. (B) Survival of FVB (WT) and FVB GADD34^ΔC/ΔC mice is represented as total percentage of survival after 48 h or in a Kaplan-Meier plot. (C) The concentration of circulating TNF-α, IL-10 and IL-6 in C57/BL6 mice was measured after 1 h and/or 3 h of CpG ODN 1826. (D) Liver tissue damage and histology score were blindly determined by a professional anatomopathologist. Statistical significance was assigned on sample comparison by a one-way ANOVA, followed by Tukey range test and on the survival curve using log-rank test, followed by Benjamini-Yekutieli correction (* p<0.05; ** p<0.005; ***p<0.0005.).
Wild type female mice C57BL/6 of 8 weeks of age were injected i.p. with 2 mg/kg of GBZ, clonidine or PBS/DMSO. One hour later, they were injected i.p. with 20 mg/mouse of d-GalN and ODN 1826 50 μg/20 g (or PBS). Mice survival was checked every 12 hours for up to 48 hours. For some experiments, blood sera were collected 1 and 3 h after the injection of D-galN. The serum was used to measure circulating cytokines (TNFα, IL-6, IFNβ IL-10, IL-12). For some experiments, the liver was collected for immunohistochemistry after two days. For i.p. injections, 1 ml syringes and 25 gauge needles were used. Blood was collected from the cheek with a 18 gauge needle; for the TMPD model, no more than 200 μL were collected each time, respecting the ethic statement.
Mouse kidney and liver were fixed in 10% buffered formalin for 24 h, then the tissues were dehydrated and embedded in paraffin. Tissue sections of 3.5 μm were cut using the microtom Leica RM2245. Hematoxylin-eosin staining was effectuated automatically with Leica autostainer XL. Finally, the slides were mounted with entellan and kept at room temperature. Biopsies were analyzed by an anatomopathologist and the clinical score was assigned in a blinded way. Pictures were taken with Nikon Eclipse.
• a) Lobular inflammation • 0—no inflammation, 1—mild lobular inflammation (<10% of liver parenchyma), 2—moderate lobular inflammation (10-50% of liver parenchyma), 3—severe lobular inflammation (>50% of liver parenchyma) • b) Portal inflammation • 0—no portal inflammation, 1—mild portal inflammation (<⅓ of portal tracts), 2—moderate portal inflammation (approximately 50% of portal tracks), 3—severe portal inflammation (>⅔ of portal tracts) • Portal and lobular inflammation score are added=inflammation score • c) Necrosis • 0—No necrosis, 1—<10% necrosis of liver parenchyma, 2—10-25% necrosis of liver parenchyma, 3—25% necrosis of liver parenchyma • Inflammation score and necrosis score are added=Total histologic score

[1] abbreviates: WT mice, 1 hour after CpG injection, 2 mg/kg.
[2] abbreviates: WT mice, 3 h after CpG injection, 2 mg/kg.

In the case of `Clc1cccc(Cl)c1NC1=NCCN1` [clonidine, N-(2,6-dichlorophényl)-4,5-dihydro-1H-imidazol-2-amine], under “C57BL/6 WT mice, D-galN + CpG ODN 1826, compound 2 mg/kg i.p.”, the “survival after 48 h” value was “not substantially changed”. For the same molecule, under setting [1], the “circulating IL-6 plasma concentration” value is on record as “some inhibitory effect” and the “circulating TNF-α plasma concentration” value is “some inhibitory effect”. Moreover, under setting [2], the “inhibitory effect on IL-6 production” value is on record as “not observed” and the “inhibitory effect on TNF-α production” value was “not observed”.
